Experiment [1] deals with Glycogen synthase kinase-3 alpha (Homo sapiens, UniProt P49840). Description: TR-FRET Assay. On the procedure: (§1) The assay was performed in a white, 384 well, low volume, flat bottom plate (Grenier). […] The kinase activity was quenched with 2 μL of 250 mM EDTA. A 10 μL volume of 40 nM Strepavidin-d2, 2 nM Tb2+-pSer641 antibody in TR-FRET Detection Buffer (Invitrogen) was then added.

The target in experiment [2] is Glycogen synthase kinase-3 beta (Homo sapiens, UniProt P49841). Briefly: TR-FRET Assay. On the procedure:
as §1

One may read the IC50 as the concentration needed to halve the response being measured. Read a high IC50 as weaker potency.

“And” between values parts separate entries of the source, which are not always exact repeats. Equal values may be shown once.

Chain of Glycogen synthase kinase-3 alpha (P49840 whole entry): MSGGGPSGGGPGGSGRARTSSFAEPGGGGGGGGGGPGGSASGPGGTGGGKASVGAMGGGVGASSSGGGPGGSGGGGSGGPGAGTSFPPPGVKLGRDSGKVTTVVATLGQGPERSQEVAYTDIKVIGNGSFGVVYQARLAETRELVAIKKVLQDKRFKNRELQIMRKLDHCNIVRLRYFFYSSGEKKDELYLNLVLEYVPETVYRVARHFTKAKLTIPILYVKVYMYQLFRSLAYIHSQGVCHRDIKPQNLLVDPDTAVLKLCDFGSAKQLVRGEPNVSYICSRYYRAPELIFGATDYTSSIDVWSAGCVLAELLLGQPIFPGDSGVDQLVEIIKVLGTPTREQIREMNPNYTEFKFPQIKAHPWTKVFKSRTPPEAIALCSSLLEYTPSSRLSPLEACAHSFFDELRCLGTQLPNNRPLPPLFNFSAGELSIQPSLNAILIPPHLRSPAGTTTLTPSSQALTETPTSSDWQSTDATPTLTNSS
Chain of Glycogen synthase kinase-3 beta (P49841 whole entry): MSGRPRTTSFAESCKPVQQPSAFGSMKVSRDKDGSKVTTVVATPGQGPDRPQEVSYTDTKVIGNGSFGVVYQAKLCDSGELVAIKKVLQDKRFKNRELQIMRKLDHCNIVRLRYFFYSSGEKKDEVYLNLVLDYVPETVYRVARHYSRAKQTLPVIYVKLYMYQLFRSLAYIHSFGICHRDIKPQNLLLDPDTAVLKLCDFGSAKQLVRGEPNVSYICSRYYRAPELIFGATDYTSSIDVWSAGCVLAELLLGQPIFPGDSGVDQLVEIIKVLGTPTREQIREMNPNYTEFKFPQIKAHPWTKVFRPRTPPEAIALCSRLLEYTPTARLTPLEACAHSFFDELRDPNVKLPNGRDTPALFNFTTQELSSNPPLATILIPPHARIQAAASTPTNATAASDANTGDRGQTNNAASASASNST

`CCC1(c2ccc(F)cc2)C2=C(N=NC2)NC2=C1C(=O)CC(C)(C)C2` (stereo not drawn) [US20250313563, Compound 772965]: the IC50 in experiment [1] was 1000 to 5000 nM; in experiment [2], more than 5000 nM.
The matching figures for `CC(C)(C)CC1=C2C(N=N1)NC1=C(C(=O)CC(C)(C)C1)[C@]21CCc2cc(F)ccc21` (stereo partly drawn) [US20250313563, Compound 782424]: 100 to 1000 nM and less than 100 nM.
In the case of `CC(C)(C)CC1=C2C(N=N1)NC1=C(C(=O)CC(C)(C)C1)[C@@]21CCc2cc(F)ccc21` (stereo partly drawn) [US20250313563, Compound 782425], the IC50 in experiment [1] and in experiment [2] was 100 to 1000 nM each time.
As to `CC(C)(C)CC1=C2C(N=N1)NC1=C(C(=O)CC(C)(C)C1)C21CCc2ccc(F)cc21` (stereo not drawn) [US20250313563, Compound 784440], the IC50 is 100 to 1000 nM in experiment [1] and less than 100 nM in experiment [2].
The matching figures for `CC1(C)CC(=O)C2=C(C1)NC1=C(CN=N1)C2(C)c1cc(F)cc(F)c1` (stereo not drawn) [US20250313563, Compound 785735]: 100 to 1000 nM and more than 5000 nM.
On the same counts, the results for `Cc1cccc(C2(C)C3=C(N=NC3)NC3=C2C(=O)CC(C)(C)C3)c1` (stereo not drawn) [US20250313563, Compound 785736] are less than 100 nM and 100 to 1000 nM.
On the same counts, the results for `CCC1(c2ccccc2)C2=C(N=NC2)NC2=C1C(=O)CC1(CCCC1)C2` (stereo not drawn) [US20250313563, Compound 785737] are less than 100 nM and 100 to 1000 nM.
In the case of `CCC1(c2cccc(C)c2)C2=CN=NC2NC2=C1C(=O)CC(C)(C)C2` (stereo not drawn) [US20250313563, Compound 785738], the figures for the 50% inhibitory concentration (IC50) in experiment [1] and in experiment [2] were less than 100 nM and 100 to 1000 nM, respectively.
The matching figures for `CCC1(c2ccc(C)cc2)C2=C(N=NC2)NC2=C1C(=O)CC(C)(C)C2` (stereo not drawn) [US20250313563, Compound 785739]: 100 to 1000 nM and more than 5000 nM.
For the molecule `CCC1(c2cccc(C(F)(F)F)c2)C2=CN=NC2NC2=C1C(=O)CC(C)(C)C2` (stereo not drawn) [US20250313563, Compound 785762], the IC50 in experiment [1] and in experiment [2] was less than 100 nM in each case.
Consider `CCC1(CC)C2=C(CC(C)(C)CC2=O)NC2=C1C(C)N=N2` (stereo not drawn) [US20250313563, Compound 786061], for which the IC50 in experiment [1] was 100 to 1000 nM; in experiment [2] it was more than 1670 nM.
The matching figures for `CC1(C)CC(=O)C2=C(C1)NC1=C(CN=N1)C2(C)C` [US20250313563, Compound 786065]: 1000 to 5000 nM and more than 1670 nM.
The matching figures for `CC1N=NC2=C1C1(CCCC1)C1=C(CC(C)(C)CC1=O)N2` (stereo not drawn) [US20250313563, Compound 786072]: less than 100 nM and less than 100 nM.
As to `CC[C@]1(c2ccccc2)C2=CN=NC2NC2=C1C(=O)C[C@H](C)C2` (stereo partly drawn) [US20250313563, Compound 789010], the IC50 in experiment [1] and in experiment [2] was 100 to 1000 nM in each case.
Regarding `CC[C@@]1(c2ccccc2)C2=CN=NC2NC2=C1C(=O)C[C@@H](C)C2` (stereo partly drawn) [US20250313563, Compound 789013], the figures for the IC50 in experiment [1] and in experiment [2] were 100 to 1000 nM and more than 5000 nM, respectively.
Regarding `CC1(C)CC(=O)C2=C(C1)NC1=C(CN=N1)C2(C)c1cccc(Br)c1` (stereo not drawn) [US20250313563, Compound 789277], the IC50 is less than 100 nM in experiment [1] and 100 to 1000 nM in experiment [2].
Turning to `CCC1(c2cccc(Br)c2)C2=C(N=NC2)NC2=C1C(=O)CC(C)(C)C2` (stereo not drawn) [US20250313563, Compound 789312], the IC50 was less than 100 nM in experiment [1] and 100 to 1000 nM in experiment [2].
The matching figures for `CCC1(c2ccccc2)C2=C(N=NC2)NC2=C1C(=O)CC1(CC1)C2` (stereo not drawn) [US20250313563, Compound 789330]: 100 to 1000 nM and 1000 to 5000 nM.
On the same counts, the results for `C[C@H]1CC(=O)C2=C(C1)NC1=C(CN=N1)[C@]2(C)c1ccccc1` [US20250313563, Compound 789332] are 100 to 1000 nM and 100 to 1000 nM.
On the same counts, the results for `C[C@H]1CC(=O)C2=C(C1)NC1=C(CN=N1)[C@@]2(C)c1ccccc1` [US20250313563, Compound 789334] are 100 to 1000 nM and 1000 to 5000 nM.
As for `CCC1(c2cccc(Cl)c2)C2=C(CC(C)(C)CC2=O)NC2N=NC(C)=C21` (stereo not drawn) [US20250313563, Compound 789336], the 50% inhibitory concentration (IC50) in experiment [1] is less than 100 nM; in experiment [2] it was 100 to 1000 nM.
The matching figures for `CC1(C)CC(=O)C2=C(C1)NC1=C(CN=N1)C2(C)c1cc(Cl)cc(Cl)c1` (stereo not drawn) [US20250313563, Compound 789337]: 100 to 1000 nM and 1000 to 5000 nM.
The matching figures for `CC[C@]1(c2ccc(C)cc2)C2=CN=NC2NC2=C1C(=O)CC(C)(C)C2` (stereo partly drawn) [US20250313563, Compound 789457]: 100 to 1000 nM and 1000 to 5000 nM.
On the same counts, the results for `CC[C@@]1(c2ccc(C)cc2)C2=CN=NC2NC2=C1C(=O)CC(C)(C)C2` (stereo partly drawn) [US20250313563, Compound 789458] are more than 5000 nM and more than 5000 nM.
On to `CCC1(c2ccccc2)C2=C(CC(C)(C)CC2=O)NC2N=NC(Br)=C21` (stereo not drawn) [US20250313563, Compound 789459], for which the half-maximal inhibitory concentration (IC50) in experiment [1] and in experiment [2] was less than 100 nM in each case.
For `CC1(c2ccccc2)C2=C(N=NC2)NC2=C1C(=O)CC1(CCCC1)C2` (stereo not drawn) [US20250313563, Compound 789460], the IC50 in experiment [1] and in experiment [2] was 100 to 1000 nM each time.
Turning to `CC1(C)CC(=O)C2=C(C1)NC1=C(CN=N1)C2(c1ccccc1)c1ccccc1` [US20250313563, Compound 789461], the IC50 is 1000 to 5000 nM in experiment [1] and more than 5000 nM in experiment [2].
Take `CCC1(c2ccccc2)C2=C(N=NC2)NC2=C1C(=O)CCC2` (stereo not drawn) [US20250313563, Compound 789497]: the figures for the IC50 in experiment [1] and in experiment [2] were 1000 to 5000 nM and more than 5000 nM, respectively.
The matching figures for `CC(C)(C)CC1=C2C(N=N1)NC1=C(C(=O)CC(C)(C)C1)[C@]21CCc2ccc(F)cc21` (stereo partly drawn) [US20250313563, Compound 789504]: 1000 to 5000 nM and 100 to 1000 nM.
The matching figures for `CC(C)(C)CC1=C2C(N=N1)NC1=C(C(=O)CC(C)(C)C1)[C@@]21CCc2ccc(F)cc21` (stereo partly drawn) [US20250313563, Compound 789505]: 100 to 1000 nM and less than 100 nM.
The matching figures for `CC1(C)CC(=O)C2=C(C1)NC1=C(CN=N1)C2(C)c1cccc(-c2ccccc2)c1` (stereo not drawn) [US20250313563, Compound 789513]: 100 to 1000 nM and 100 to 1000 nM.
For `CCC1(c2cccc(-c3ccccc3)c2)C2=CN=NC2NC2=C1C(=O)CC(C)(C)C2` (stereo not drawn) [US20250313563, Compound 789514], the IC50 in experiment [1] and in experiment [2] was 100 to 1000 nM throughout.
`CC(C)(C)CC1=C2C(N=N1)NC1=C(C(=O)CC(C)(C)C1)C21CCc2c(F)cccc21` (stereo not drawn) [US20250313563, Compound 789524]: the IC50 in experiment [1] is 100 to 1000 nM; in experiment [2] it was less than 100 nM.
Turning to `CC[C@]1(c2cccc(C)c2)C2=CN=NC2NC2=C1C(=O)CC(C)(C)C2` (stereo partly drawn) [US20250313563, Compound 789560], the IC50 in experiment [1] was < 100 nM and 1000 to 5000 nM; in experiment [2], 100 to 1000 nM.
In the case of `CC[C@@]1(c2cccc(C)c2)C2=CN=NC2NC2=C1C(=O)CC(C)(C)C2` (stereo partly drawn) [US20250313563, Compound 789561], the IC50 in experiment [1] is 1000 to 5000 nM; in experiment [2], more than 5000 nM.
Consider `CC[C@]1(c2ccccc2)C2=CN=NC2NC2=C1C(=O)CC1(CCCC1)C2` (stereo partly drawn) [US20250313563, Compound 789562], for which the concentration for half-maximal inhibition (IC50) in experiment [1] is less than 100 nM; in experiment [2], 100 to 1000 nM.
For the molecule `CCC1(c2cccc(Cl)c2)C2=C(CC(C)(C)CC2=O)NC2N=NC(Br)=C21` (stereo not drawn) [US20250313563, Compound 789564], the IC50 in experiment [1] and in experiment [2] was less than 100 nM each time.
In the case of `CCC1(c2cccc(C)c2)C2=C(N=NC2)NC2=C1C(=O)CC1(CCCC1)C2` (stereo not drawn) [US20250313563, Compound 789565], the IC50 in experiment [1] was less than 100 nM; in experiment [2] it was 100 to 1000 nM.
On to `CCC1(c2cccc(Cl)c2)C2=C(CC(C)(C)CC2=O)NC2N=NC(C(F)(F)F)=C21` (stereo not drawn) [US20250313563, Compound 789566], for which the concentration for half-maximal inhibition (IC50) in experiment [1] and in experiment [2] was less than 100 nM in each case.
On to `CC(C)(C)CC1=C2C(N=N1)NC1=C(C(=O)CC(C)(C)C1)C21CCc2cccc(F)c21` (stereo not drawn) [US20250313563, Compound 789583], for which the IC50 in experiment [1] and in experiment [2] was 100 to 1000 nM throughout.
`CCC1(c2cccc(C(F)(F)F)c2)C2=C(CC(C)(C)CC2=O)NC2N=NC(C(F)(F)F)=C21` (stereo not drawn) [US20250313563, Compound 789584]: the concentration for half-maximal inhibition (IC50) is 100 to 1000 nM in experiment [1] and 1000 to 5000 nM in experiment [2].
As for `CC[C@]1(c2cccc(Cl)c2)C2=C(CC(C)(C)CC2=O)NC2N=NC(C)=C21` (stereo partly drawn) [US20250313563, Compound 790612], the IC50 in experiment [1] and in experiment [2] was less than 100 nM in each case.
In the case of `CC[C@]1(c2ccccc2)C2=CN=NC2NC2=C1C(=O)CC1(CC1)C2` (stereo partly drawn) [US20250313563, Compound 790615], the IC50 in experiment [1] is less than 100 nM; in experiment [2] it was 100 to 1000 nM.
On the same counts, the results for `CCC1(c2cccc(C(F)(F)F)c2)C2=CN=NC2NC2=C1C(=O)CC1(CCCC1)C2` (stereo not drawn) [US20250313563, Compound 790617] are less than 100 nM and less than 100 nM.
The matching figures for `CCC1(c2ccn(C)n2)C2=C(N=NC2)NC2=C1C(=O)CC(C)(C)C2` (stereo not drawn) [US20250313563, Compound 790619]: 1000 to 5000 nM and more than 5000 nM.
For the molecule `CC1(C)CC(=O)C2=C(C1)NC1N=NC(C(F)(F)F)=C1C21CCCOc2ccccc21` (stereo not drawn) [US20250313563, Compound 790632], the IC50 in experiment [1] and in experiment [2] was more than 5000 nM each time.
`CC1(C)CC(=O)C2=C(C1)NC1=C(CN=N1)C21CCCC1` [US20250313563, Compound 790666]: the IC50 in experiment [1] and in experiment [2] was less than 100 nM in each case.
As to `CC1(C)CC(=O)C2=C(C1)NC1=C(CN=N1)C2(C)c1cccc(-c2ccncc2)c1` (stereo not drawn) [US20250313563, Compound 790730], the IC50 was less than 100 nM in experiment [1] and 100 to 1000 nM in experiment [2].
The matching figures for `CC[C@]1(c2cccc(Br)c2)C2=CN=NC2NC2=C1C(=O)CC(C)(C)C2` (stereo partly drawn) [US20250313563, Compound 790733]: 100 to 1000 nM and 1000 to 5000 nM.
